One test addresses DP IV (Homo sapiens, UniProt P27487). Kind of test: DP IV inhibition IC50, parallel-synthesis compounds tested directly following synthesis (without purification). The format is biochemical. Also on record: IC50 DP4; other: tested directly following parallel synthesis, without purification; compounds of formula (Ib) from parallel synthesis, tested directly following synthesis. The settings on record: DP IV inhibition; compounds of formula (Ib) from parallel synthesis, tested directly following synthesis (without purification); read-out: IC50. Here is the method: Compounds were immediately tested regarding their activity as DP IV inhibitors.
Substances are screened for inhibition of dipeptidyl peptidase (DP IV) by their ability to inhibit the hydrolysis of the DP IV specific substrate Glycyl-Prolyl-4-Nitroanilide (Gly-Pro-pNA). All compounds are diluted in DMSO and IC50 will be determined with 11 serial dilutions (1:2) starting with an final concentration of 100 μM. The final DMSO concentration in the assay is 5% (v/v). The method was automated using a Tecan Genesis Freedom liquid handler and a Genius Pro (Tecan) microplate reader.
DP IV from porcine kidney (pDP IV) or recombinant human DP IV (rhDP IV) is diluted in HEPES buffer to a final activity of approximately 40-50 μU*ml^−1. The DP IV is stored in a cooling rack (4° C.) on the liquid handler.
The assay may becarried out at room temperature using Freedom liquid handler connected with a Genios Pro microplate reader. Each sample is measured in duplicate. Each sample stock solution is prediluted with DMSO in a ratio of 1:5 in a polypropylen 96-well plate. From this predilution 10 serial (1:2) dilutions in DMSO are prepared. 13.5 μl of the 11 DMSO dilutions and DMSO alone are transferred to the measurement microplate (duplicates) and 86.5 μl water, 100 μl HEPES buffer and 50 μl substrate solution are added to each well. The enzymatic reaction is started by addition of 20 μl enzyme solution to each well, and then the microplate is immediately transferred to the microplate reader.
After short mixing (20 s) the release of 4-Nitroanilin (pNA) is monitored at 405 nm for 30 cycles (approx. 18 min).
Post assay calculations are done by the Magellan (Tecan) and Graphit Software. The linear slopes are calculated for each well and averaged for the duplicates. The residue activities are calculated in relation to a sample containing only solvent instead of inhibitor and expressed in %. Residue activities are plotted against the log of inhibitor concentrations and IC50 is calculated by an 4-parameter fitting ranging from 0 to 100%.
Turning to `NCCCc1c(-c2ccc(Cl)cc2Cl)ncn1CCc1ccccc1Cl` [90b, 3-[3-[2-(2-Chloro-phenyl)-ethyl]-5-(2,4-dichloro-phenyl)-3H-imidazol-4-yl]-propylamine], the IC50 (usually the concentration at which inhibition is half-maximal) came out at 14.5 µM.

`NCc1c(-c2ccc(Cl)cc2Cl)ncn1CCc1ccc(Br)cc1` [49b, C-[3-[2-(4-Bromo-phenyl)-ethyl]-5-(2,4-dichloro-phenyl)-3H-imidazol-4-yl]-methylamine]: the 50% inhibitory concentration (IC50) was 9.1 µM.

`NCc1c(-c2ccc(Cl)cc2Cl)ncn1CCCc1ccccc1` [91b, C-[5-(2,4-Dichloro-phenyl)-3-(3-phenyl-propyl)-3H-imidazol-4-yl]-methylamine]: the IC50 is 12.7 µM.

In the case of `NCc1c(-c2ccc(Cl)cc2Cl)ncn1Cc1ccc(F)c(F)c1` [Example 92b, C-[5-(2,4-dichloro-phenyl)-3-(3,4-difluoro-benzyl)-3H-imidazol-4-yl]-methylamine], the IC50 was 1 µM.

With `NCc1c(-c2ccc(Cl)cc2Cl)ncn1CCc1ccc(Cl)cc1Cl` [Example 32b, C-{5-(2,4-dichloro-phenyl)-3-[2-(2,4-dichloro-phenyl)-ethyl]-3H-imidazol-4-yl}-methylamine], the IC50 worked out at 15.4 µM.

For `COc1cccc(Cn2cnc(-c3ccc(Cl)cc3Cl)c2C(C)N)c1` (stereo not drawn) [76b, 1-[5-(2,4-Dichloro-phenyl)-3-(3-methoxy-benzyl)-3H-imidazol-4-yl]-ethylamine], the IC50 was 10 µM.

With `CC(N)c1c(-c2ccc(Cl)cc2Cl)ncn1Cc1cc(F)ccc1F` (stereo not drawn) [36b, 1-[5-(2,4-Dichloro-phenyl)-3-(2,5-difluoro-benzyl)-3H-imidazol-4-yl]-ethylamine], the IC50 was found to be 25.3 µM.

Consider `NCc1c(-c2ccc(Cl)cc2Cl)ncn1Cc1cccc(C(F)(F)F)c1` [89b, C-[5-(2,4-Dichloro-phenyl)-3-(3-trifluoromethyl-benzyl)-3H-imidazol-4-yl]-methylamine], for which the IC50 was 1.9 µM.

Regarding `Cc1cnc(Cn2cnc(-c3ccc(Cl)cc3Cl)c2CN)cn1` [27b, C-[5-(2,4-Dichloro-phenyl)-3-(5-methyl-pyrazin-2-ylmethyl)-3H-imidazol-4-yl]-methylamine], the IC50 was determined as 19.9 µM.

On to `CC(N)c1c(-c2ccc(Cl)cc2Cl)ncn1CCCCCCO` (stereo not drawn) [34b, 6-[5-(1-Amino-ethyl)-4-(2,4-dichloro-phenyl)-imidazol-1-yl]-hexan-1-ol], for which the IC50 was 38.8 µM.

As to `NCc1c(-c2ccc(Cl)cc2Cl)ncn1CCc1c[nH]c2cc(F)ccc12` [114b, C-{5-(2,4-Dichloro-phenyl)-3-[2-(6-fluoro-1H-indol-3-yl)-ethyl]-3H-imidazol-4-yl}-methylamine], the IC50 amounted to 3.7 µM.

Take `Clc1ccc(-c2ncn(CCc3ccccc3Cl)c2C2CNC2)c(Cl)c1` [117b, 5-Azetidin-3-yl-1-[2-(2-chloro-phenyl)-ethyl]-4-(2,4-dichloro-phenyl)-1H-imidazole]: the IC50 stood at 39.7 µM.

Consider `NCc1c(-c2ccc(Cl)cc2Cl)ncn1CCc1cccc(Cl)c1` [52b, C-[3-[2-(3-Chloro-phenyl)-ethyl]-5-(2,4-dichloro-phenyl)-3H-imidazol-4-yl]-methylamine], for which the IC50 came to 5.5 µM.

Regarding `NCc1c(-c2ccc(Cl)cc2Cl)ncn1Cc1ccccc1C(F)(F)F` [108b, C-[5-(2,4-Dichloro-phenyl)-3-(2-trifluoromethyl-benzyl)-3H-imidazol-4-yl]-methylamine], the concentration for half-maximal inhibition (IC50) is 5.5 µM.

Take `NCc1c(-c2ccc(Cl)cc2Cl)ncn1CCc1ccc(O)cc1` [113b, 4-{2-[5-Aminomethyl-4-(2,4-dichloro-phenyl)-imidazol-1-yl]-ethyl}-phenol]: the IC50 amounted to 21.7 µM.

Turning to `CC(N)c1c(-c2ccc(Cl)cc2Cl)ncn1CCc1ccccc1Cl` (stereo not drawn) [63b, 1-[3-[2-(2-Chloro-phenyl)-ethyl]-5-(2,4-dichloro-phenyl)-3H-imidazol-4-yl]-ethylamine], the IC50 is 19 µM.

Take `CC(N)c1c(-c2ccc(Cl)cc2Cl)ncn1Cc1ccccc1Cl` (stereo not drawn) [67b, 1-[3-(2-Chloro-benzyl)-5-(2,4-dichloro-phenyl)-3H-imidazol-4-yl]-ethylamine]: the half-inhibitory concentration (IC50) was determined as 28.9 µM.

As to `CC(N)c1c(-c2ccc(Cl)cc2Cl)ncn1CCN1CCOCC1` (stereo not drawn) [118b, 1-[5-(2,4-Dichloro-phenyl)-3-(2-morpholin-4-yl-ethyl)-3H-imidazol-4-yl]-ethylamine], the IC50 is 49.6 µM.

On to `NCc1c(-c2ccc(Cl)cc2Cl)ncn1CCN1CCCCC1` [58b, C-[5-(2,4-Dichloro-phenyl)-3-(2-piperidin-1-yl-ethyl)-3H-imidazol-4-yl]-methylamine], for which the IC50 was found to be 42.4 µM.

With `CC(N)c1c(-c2ccc(Cl)cc2Cl)ncn1Cc1cccnc1` (stereo not drawn) [78b, 1-[5-(2,4-Dichloro-phenyl)-3-pyridin-3-ylmethyl-3H-imidazol-4-yl]-ethylamine], the IC50 turned out to be 28 µM.

Take `CC(N)c1c(-c2ccc(Cl)cc2Cl)ncn1CCC1=CCCCC1` (stereo not drawn) [71b, 1-[3-(2-Cyclohex-1-enyl-ethyl)-5-(2,4-dichloro-phenyl)-3H-imidazol-4-yl]-ethylamine]: the IC50 was 35.2 µM.

As for `CC(C)N(CCn1cnc(-c2ccc(Cl)cc2Cl)c1CN)C(C)C` [6b, {2-[5-Aminomethyl-4-(2,4-dichloro-phenyl)-imidazol-1-yl]-ethyl}-diisopropyl-amine], the IC50 was 10.9 µM.

The same test, now with this note: tested directly following parallel synthesis, without purification; read-out: IC50 DP4.
As to `NCc1c(-c2ccc(Cl)cc2Cl)ncn1Cc1c(F)cccc1Cl` [Example 45a, C-[3-(2-Chloro-6-fluoro-benzyl)-5-(2,4-dichloro-phenyl)-3H-imid-azol-4-yl]-methyl-amine], the IC50 turned out to be 1.9 µM.

For `CC(C)(C)Cn1cnc(-c2ccc(F)cc2F)c1CN` [Example 83a, C-[5-(2,4-Difluoro-phenyl)-3-(2,2-dimethyl-propyl)-3H-imid-azol-4-yl]-methyl-amine], the IC50 was 27.1 µM.

Consider `NCc1c(-c2ccc(F)cc2F)ncn1Cc1ccc(F)cc1Cl` [Example 87a, C-[3-(2-Chloro-4-fluoro-benzyl)-5-(2,4-difluoro-phenyl)-3H-imid-azol-4-yl]-methyl-amine], for which the IC50 was found to be 25.3 µM.

Consider `NCc1c(-c2ccc(F)cc2Cl)ncn1Cc1ccccc1F` [Example 28a, C-[5-(2-Chloro-4-fluoro-phenyl)-3-(2-fluoro-benzyl)-3H-imid-azol-4-yl]-methyl-amine], for which the IC50 is 19 µM.

Consider `NCc1c(-c2ccc(Cl)cc2Cl)ncn1Cc1ccccc1F` [Example 62a, C-[5-(2,4-Dichloro-phenyl)-3-(2-fluoro-benzyl)-3H-imid-azol-4-yl]-methyl-amine], for which the IC50 is 0.1 µM.

Take `CC(C)(C)Cn1cnc(-c2ccc(Cl)cc2Cl)c1CN` [Example 53a, C-[5-(2,4-Dichloro-phenyl)-3-(2,2-dimethyl-propyl)-3H-imid-azol-4-yl]-methyl-amine]: the IC50 came out at 1 µM.

As for `NCc1c(-c2ccc(F)cc2Cl)ncn1Cc1cccc(F)c1` [Example 10a, C-[5-(2-Chloro-4-fluoro-phenyl)-3-(3-fluoro-benzyl)-3H-imid-azol-4-yl]-methyl-amine], the IC50 was determined as 14.5 µM.

Regarding `NCc1c(-c2ccc(Cl)cc2Cl)ncn1Cc1cccc(C(F)(F)F)c1` [Example 38a, C-[5-(2,4-Dichloro-phenyl)-3-(3-tri-fluoromethyl-benzyl)-3H-imid-azol-4-yl]-methyl-amine], the IC50 came to 1 µM.

As for `NCc1c(-c2ccc(Cl)cc2Cl)ncn1Cc1ccc(Cl)c(Cl)c1` [Example 58a, C-[3-(3,4-Dichloro-benzyl)-5-(2,4-dichloro-phenyl)-3H-imid-azol-4-yl]-methyl-amine], the IC50 came out at 1.9 µM.

With `COc1ccc(-c2ncn(Cc3cc(Br)ccc3F)c2CN)c(C)c1` [Example 71a, C-[3-(5-Bro-mo-2-fluoro-benzyl)-5-(4-meth-oxy-2-methyl-phenyl)-3H-imid-azol-4-yl]-methyl-amine], the IC50 turned out to be 30.7 µM.

For `NCc1c(-c2ccc(F)cc2Cl)ncn1Cc1ccc(F)cc1Cl` [Example 29a, C-[3-(2-Chloro-4-fluoro-benzyl)-5-(2-chlo-ro-4-fluoro-phenyl)-3H-imid-azol-4-yl]-methyl-amine], the IC50 turned out to be 31.6 µM.

Regarding `CCOc1ccccc1Cn1cnc(-c2ccc(F)cc2Cl)c1CN` [Example 18a, C-[5-(2-Chloro-4-fluoro-phenyl)-3-(2-ethoxy-benzyl)-3H-imidazol-4-yl]-methylamine], the IC50 was 6.4 µM.

As for `CCCn1cnc(-c2ccc(Cl)cc2Cl)c1CN` [Example 40a, C-[5-(2,4-Dichloro-phenyl)-3-pro-pyl-3H-imid-azol-4-yl]-methyl-amine], the IC50 came to 3.7 µM.

For the molecule `Cc1ccc(-c2ncn(Cc3ccsc3)c2CN)c(C)c1` [Example 67a, C-[5-(2,4-Dimethyl-phenyl)-3-thio-phen-3-yl-methyl-3H-imid-azol-4-yl]-methyl-amine], the IC50 amounted to 42.4 µM.
